The values below are quoted from earlier work in PubChem BioAssay AID1259409 (Chemical Carcinogenesis Research Information System (CCRIS), 2018).

This data set deals with rodent chemically induced tumor inhibition, incidence and multiplicity. Description: CCRIS tumor inhibitor studies. The settings on record: for tumour outcome (control, treated, inhibition, significance): Species: MOUSE; for outcome: Carcinogen: 1,2-Dimethylhydrazine dihydrochloride (306-37-6), Route [Inhibitor]: Oral, Species: Rat, Strain/Sex: Fischer 344/male, Target Tissue: Type of Lesion: Colon: tumors, Dose [Carcinogen]: 20 mg/kg once a wk for 4 wk, Promoter: None. The source says:
The CCRIS database contains chemical records with carcinogenicity, mutagenicity, tumor promotion, and tumor inhibition test results. It was developed by the National Cancer Institute (NCI). Data are derived from studies cited in primary journals, current awareness tools, NCI reports, and other sources. Test results have been reviewed by experts in carcinogenesis and mutagenesis.
CCRIS provides historical information from the years 1985 - 2011. It is no longer updated.
This is an archive assay for CCRIS tumor inhibitor studies.

Each structure is given as a SMILES string.

Regarding `CC(C)=C1C=C(C(C)C)C(O)CC1` (configuration not stated), under “Carcinogen: 7,12-DIMETHYLBENZ[A]ANTHRACENE, 57-97-6, Dose [Inhibitor]: 0, 12 NMOL PER REPEATED APPLICATION FOR 20 WK (STUDY DURATION: 20 WK), Route [Inhibitor]: DERMAL, Strain/Sex: CD-1/FEMALE, Target Tissue: Type of Lesion: SKIN: TUMOR, Dose [Carcinogen]: 100 UG ONCE, Promoter: OKADAIC ACID, 78111-17-8”, the “tumour outcome (control, treated, inhibition, significance)” value is 87%, 33%, 62%, not calculated.

Regarding `CC(O)CCC(=O)c1cccs1` (configuration not stated), the “tumour outcome (control, treated, inhibition, significance)” value (Carcinogen: 4-(METHYLNITROSAMINO)-1-(3-PYRIDYL)-1-BUTANONE, 64091-91-4, Dose [Inhibitor]: 0, 25 UMOL IN 0.1 ML CORN OIL ONCE 2 HR PRIOR TO CARCINOGEN DOSE (STUDY DURATION: 16 WK), Route [Inhibitor]: GAVAGE, Strain/Sex: STRAIN-A/FEMALE, Target Tissue: Type of Lesion: LUNG: ADENOMA, Dose [Carcinogen]: 10 UMOL IN 0.1 ML SALINE ONCE, Promoter: NONE USED) is listed as 100%, 100%, 0%, not significant.

For the compound `C/C(=C\c1ccc2c(c1)C(C)(C)CCC2(C)C)c1ccc(C(=O)O)cc1`, the “tumour outcome (control, treated, inhibition, significance)” value reads like this: (Carcinogen: 7,12-DIMETHYLBENZ[A]ANTHRACENE, 57-97-6, Dose [Inhibitor]: 0.17 NMOL IN 0.2 ML ACETONE 1 HR PRIOR TO EACH PROMOTER DOSE FOR 12 WK (STUDY DURATION: 14 WK), Route [Inhibitor]: DERMAL, Strain/Sex: SENCAR/FEMALE, Target Tissue: Type of Lesion: SKIN: PAPILLOMA, Dose [Carcinogen]: 200 NMOL IN 0.2 ML ACETONE ONCE, Promoter: 12-O-TETRADECANOYLPHORBOL-13-ACETATE, 16561-29-8) 100%, 93%, 7%, not calculated; (Carcinogen: 7,12-DIMETHYLBENZ[A]ANTHRACENE, 57-97-6, Dose [Inhibitor]: 0.17 NMOL IN 0.2 ML ACETONE 1 HR PRIOR TO EACH PROMOTER DOSE FOR 20 WK (STUDY DURATION: 22 WK), Route [Inhibitor]: DERMAL, Strain/Sex: CD-1/FEMALE, Target Tissue: Type of Lesion: SKIN: PAPILLOMA, Dose [Carcinogen]: 200 NMOL IN 0.2 ML ACETONE ONCE, Promoter: 12-O-TETRADECANOYLPHORBOL-13-ACETATE, 16561-29-8) 94%, 87%, 8%, not calculated; (Carcinogen: 7,12-DIMETHYLBENZ[A]ANTHRACENE, 57-97-6, Dose [Inhibitor]: 1.7 NMOL IN 0.2 ML ACETONE 1 HR PRIOR TO EACH PROMOTER DOSE FOR 12 WK (STUDY DURATION: 14 WK), Route [Inhibitor]: DERMAL, Strain/Sex: SENCAR/FEMALE, Target Tissue: Type of Lesion: SKIN: PAPILLOMA, Dose [Carcinogen]: 200 NMOL IN 0.2 ML ACETONE ONCE, Promoter: 12-O-TETRADECANOYLPHORBOL-13-ACETATE, 16561-29-8) 100%, 97%, 3%, not calculated; (Carcinogen: 7,12-DIMETHYLBENZ[A]ANTHRACENE, 57-97-6, Dose [Inhibitor]: 1.7 NMOL IN 0.2 ML ACETONE 1 HR PRIOR TO EACH PROMOTER DOSE FOR 20 WK (STUDY DURATION: 22 WK), Route [Inhibitor]: DERMAL, Strain/Sex: CD-1/FEMALE, Target Tissue: Type of Lesion: SKIN: PAPILLOMA, Dose [Carcinogen]: 200 NMOL IN 0.2 ML ACETONE ONCE, Promoter: 12-O-TETRADECANOYLPHORBOL-13-ACETATE, 16561-29-8) 94%, 69%, 27%, not calculated; (Carcinogen: 7,12-DIMETHYLBENZ[A]ANTHRACENE, 57-97-6, Dose [Inhibitor]: 17 NMOL IN 0.2 ML ACETONE 1 HR PRIOR TO EACH PROMOTER DOSE FOR 12 WK (STUDY DURATION: 14 WK), Route [Inhibitor]: DERMAL, Strain/Sex: SENCAR/FEMALE, Target Tissue: Type of Lesion: SKIN: PAPILLOMA, Dose [Carcinogen]: 200 NMOL IN 0.2 ML ACETONE ONCE, Promoter: 12-O-TETRADECANOYLPHORBOL-13-ACETATE, 16561-29-8) 100%, 3%, 97%, not calculated; (Carcinogen: 7,12-DIMETHYLBENZ[A]ANTHRACENE, 57-97-6, Dose [Inhibitor]: 17 NMOL IN 0.2 ML ACETONE 1 HR PRIOR TO EACH PROMOTER DOSE FOR 20 WK (STUDY DURATION: 22 WK), Route [Inhibitor]: DERMAL, Strain/Sex: CD-1/FEMALE, Target Tissue: Type of Lesion: SKIN: PAPILLOMA, Dose [Carcinogen]: 200 NMOL IN 0.2 ML ACETONE ONCE, Promoter: 12-O-TETRADECANOYLPHORBOL-13-ACETATE, 16561-29-8) 94%, 0%, 100%, not calculated.

As for `O=c1ccc2cc(O[C@@H]3O[C@H](CO)[C@@H](O)[C@H](O)[C@H]3O)c(O)cc2o1`, the outcome by setting is: (Dose [Inhibitor]: 0.05% in tap water beginning 7 d before first carcinogen administration to end of last carcinogen administration, animal) 5 (31%) vs 10 (62.5% in positive controls) (p <0.05); (Dose [Inhibitor]: 0.05% in tap water beginning after last carcinogen administration to end of 16 wk study) 9 (56.3%) vs 10 (62.5%) in positive controls; ns. Also, the “tumour outcome (control, treated, inhibition, significance)” value runs as follows: (Carcinogen: BENZO[A]PYRENE, 50-32-8, Dose [Inhibitor]: 25 MG IN 0.1 ML DMSO 3/WK ADMINISTERED SIMULTANEOUSLY WITH CARCINOGEN FOR DURATION OF STUDY (STUDY DURATION: 368 D), Route [Inhibitor]: DERMAL, Strain/Sex: ICR/FEMALE, Target Tissue: Type of Lesion: SKIN: PAPILLOMA, Dose [Carcinogen]: 5 UG IN 0.1 ML DMSO 3/WK FOR DURATION OF STUDY, Promoter: NONE USED) 13/50 (26%), 0/50 (0%), 100%, not calculated; (Carcinogen: BENZO[A]PYRENE, 50-32-8, Dose [Inhibitor]: 25 MG IN 0.1 ML DMSO 3/WK ADMINISTERED SIMULTANEOUSLY WITH CARCINOGEN FOR DURATION OF STUDY (STUDY DURATION: 368 D), Route [Inhibitor]: DERMAL, Strain/Sex: ICR/FEMALE, Target Tissue: Type of Lesion: SKIN: SQUAMOUS CARCINOMA, Dose [Carcinogen]: 5 UG IN 0.1 ML DMSO THAT ALSO CONTAINED AGENT, 3/WK, FOR DURATION OF STUDY, Promoter: NONE USED) 6/50 (12%), 0/50 (0%), 100%, not calculated.

For the compound `COc1c(C)c(O)c(C(C)=O)c(O)c1Cc1c(O)c(CC=C(C)C)c(O)c(C(C)=O)c1O`, the “tumour outcome (control, treated, inhibition, significance)” value runs as follows: (Carcinogen: 7,12-DIMETHYLBENZ[A]ANTHRACENE, 57-97-6, Dose [Inhibitor]: 0, 162 NMOL IN 100 µL ACETONE 2/WK FOR 20 WK BEGINNING 1 WK POST CARCINOGEN DOSE (STUDY DURATION: 21 WK), Route [Inhibitor]: DERMAL, Strain/Sex: ICR/FEMALE, Target Tissue: Type of Lesion: SKIN: TUMOR, Dose [Carcinogen]: 100 UG ONCE, Promoter: 12-O-TETRADECANOYLPHORBOL-13-ACETATE, 16561-29-8) 40%, 36%, 10%, not significant; (Carcinogen: 7,12-DIMETHYLBENZ[A]ANTHRACENE, 57-97-6, Dose [Inhibitor]: 0, 1620 NMOL IN 100 µL ACETONE 2/WK FOR 20 WK BEGINNING POST CARCINOGEN DOSE (STUDY DURATION: 21 WK), Route [Inhibitor]: DERMAL, Strain/Sex: ICR/FEMALE, Target Tissue: Type of Lesion: SKIN: TUMOR, Dose [Carcinogen]: 100 UG ONCE, Promoter: 12-O-TETRADECANOYLPHORBOL-13-ACETATE, 16561-29-8) 52%, 0%, 100%, not calculated.

In the case of `Nc1nc(-c2ccccc2)c(Br)c(=O)[nH]1`, the “tumour outcome (control, treated, inhibition, significance)” value runs as follows: (Carcinogen: N-[4-(5-NITRO-2-FURYL)-2-THIAZOLYL]FORMAMIDE, 24554-26-5, Dose [Inhibitor]: 200 MG/KG IN CARBOXYMETHYL-CELLULOSE, POLYSORBATE 80, NACL AND BENZYL ALCOHOL, 2/WK BEGINNING ON DAY 30 OF CARCINOGEN TR, Route [Inhibitor]: INTRAGASTRIC, Strain/Sex: C3H/FEMALE, Target Tissue: Type of Lesion: BLADDER: TRANSITIONAL CELL CARCINOMA, Dose [Carcinogen]: 0.13% IN DIET FOR 192 D, Promoter: NONE USED) 24/39 (62%), 6/43 (14%), 77%, p=0.0001; (Carcinogen: N-[4-(5-NITRO-2-FURYL)-2-THIAZOLYL]FORMAMIDE, 24554-26-5, Dose [Inhibitor]: 200 MG/KG IN CARBOXYMETHYL-CELLULOSE, POLYSORBATE 80, NACL AND BENZYL ALCOHOL, 2/WK BEGINNING ON DAY 30 OF CARCINOGEN TR, Route [Inhibitor]: INTRAPERITONEAL, Strain/Sex: C3H/FEMALE, Target Tissue: Type of Lesion: BLADDER: TRANSITIONAL CELL CARCINOMA, Dose [Carcinogen]: 0.13% IN DIET FOR 192 D, Promoter: NONE USED) 18/22 (82%), 5/9 (56%), 32%, p<0.2; (Carcinogen: N-[4-(5-NITRO-2-FURYL)-2-THIAZOLYL]FORMAMIDE, 24554-26-5, Dose [Inhibitor]: 200 MG/KG IN CARBOXYMETHYL-CELLULOSE, POLYSORBATE 80, NACL AND BENZYL ALCOHOL, 2/WK BEGINNING ON DAY 150 OF CARCINOGEN T, Route [Inhibitor]: INTRAPERITONEAL, Strain/Sex: C3H/FEMALE, Target Tissue: Type of Lesion: BLADDER: TRANSITIONAL CELL CARCINOMA, Dose [Carcinogen]: 0.13% IN DIET FOR 192 D, Promoter: NONE USED) 18/22 (82%), 17/19 (89%), -8%, p=0.489.
